According to ChEMBL document CHEMBL5727418, “Substituted imidazo[2,1-f][1,2,4]triazines, substituted imidazo[1,2-a]pyridines and substituted imidazo[1,2-b]pyridazines as PI3K-gamma inhibitors” (2019):

How the values were obtained:
[1] = target: Phosphatidylinositol 4,5-bisphosphate 3-kinase catalytic subunit gamma isoform (Homo sapiens, UniProt P48736); test: PI3Kγ (p110γ) Recombinant Human Protein was purchased from Life technology (Grand Island, N.Y.). […] Inhibitors were first diluted serially in DMSO and added to the plate wells before the addition of other reaction components. The final concentration of DMSO in the assay was 2%. The PI3Kγ assay was carried out at room temperature in 20 mM MOPS, pH 6.7, 10 mM MgCl2, 5 mM DTT and CHAPS 0.03%. […] The final concentration of SPA beads is 1.0 mg/mL. After the plate sealing, plates were shaken overnight at room temperature and centrifuged at 1500 rpm for 10 min, the radioactivity of the product was determined by scintillation counting on Topcount (Perkin-Elmer).
Phosphatidylinositol 4,5-bisphosphate 3-kinase catalytic subunit gamma isoform, sequence (P48736 whole entry, canonical isoform): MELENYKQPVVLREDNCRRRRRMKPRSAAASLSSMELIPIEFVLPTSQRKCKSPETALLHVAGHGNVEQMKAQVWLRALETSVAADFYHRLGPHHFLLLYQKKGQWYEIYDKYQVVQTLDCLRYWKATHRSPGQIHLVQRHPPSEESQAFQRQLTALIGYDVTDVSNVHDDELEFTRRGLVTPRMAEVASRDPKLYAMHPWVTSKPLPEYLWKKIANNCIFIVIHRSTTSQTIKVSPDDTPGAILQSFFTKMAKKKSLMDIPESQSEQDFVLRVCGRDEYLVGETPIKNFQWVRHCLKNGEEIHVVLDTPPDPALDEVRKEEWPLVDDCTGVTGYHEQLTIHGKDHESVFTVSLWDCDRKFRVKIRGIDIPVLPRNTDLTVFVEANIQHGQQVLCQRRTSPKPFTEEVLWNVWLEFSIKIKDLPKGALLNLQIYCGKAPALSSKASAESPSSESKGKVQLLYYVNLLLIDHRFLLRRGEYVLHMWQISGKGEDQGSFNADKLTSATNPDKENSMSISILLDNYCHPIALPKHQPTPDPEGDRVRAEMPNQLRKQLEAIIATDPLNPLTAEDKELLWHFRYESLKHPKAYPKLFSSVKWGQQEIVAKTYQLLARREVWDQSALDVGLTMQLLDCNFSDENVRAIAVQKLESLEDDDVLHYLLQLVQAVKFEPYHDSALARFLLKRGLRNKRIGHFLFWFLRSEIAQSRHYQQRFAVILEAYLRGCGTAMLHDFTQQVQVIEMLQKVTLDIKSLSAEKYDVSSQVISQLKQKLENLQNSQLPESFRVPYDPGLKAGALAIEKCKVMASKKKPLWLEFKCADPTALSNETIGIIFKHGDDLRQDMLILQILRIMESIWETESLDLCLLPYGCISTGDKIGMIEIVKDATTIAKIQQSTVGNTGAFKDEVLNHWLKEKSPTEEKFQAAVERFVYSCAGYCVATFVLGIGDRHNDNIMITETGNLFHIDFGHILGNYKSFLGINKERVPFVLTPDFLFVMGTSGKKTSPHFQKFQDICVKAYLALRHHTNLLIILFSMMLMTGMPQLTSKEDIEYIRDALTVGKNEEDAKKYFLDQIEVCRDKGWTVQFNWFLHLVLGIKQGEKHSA

[2] = target: T1, Phosphatidylinositol 4,5-bisphosphate 3-kinase catalytic subunit delta isoform (Homo sapiens, UniProt O00329); test: Scintillation Proximity Assay: PI3Kδ:[γ-33P]ATP (10 mCi/mL) and Wheat Germ Agglutinin (WGA) YSi SPA Scintillation Beads was purchased from Perkin-Elmer (Waltham, Mass.). Lipid kinase substrate, D-myo-Phosphatidylinositol 4,5-bisphosphate (PtdIns(4,5)P2)D (+)-sn-1,2-di-O-octanoylglyceryl, 3-O-phospho linked (PIP2), CAS 204858-53-7, was purchased from Echelon Biosciences (Salt Lake City, Utah). PI3Kδ (p110δ/p85α) Recombinant Human Protein was purchased from Eurofins (St Charles, Mo.). ATP, MgCl2, DTT, EDTA, MOPS and CHAPS were purchased from Sigma-Aldrich (St. Louis, Mo.).The kinase reaction was conducted in polystyrene 384-well Greiner Bio-one white plate from Thermo Fisher Scientific in a final volume of 25 μL. Inhibitors were first diluted serially in DMSO and added to the plate wells before the addition of other reaction components. The final concentration of DMSO in the assay was 2%. The PI3Kδ assay was carried out at room temperature in 20 mM MOPS, pH 6.7, 10 mM MgCl2, 5 mM DTT and CHAPS 0.03%. Reactions were initiated by the addition of ATP, the final reaction mixture consisted of 20 μM PIP2, 2 μM ATP, 0.5 μCi [γ-33P] ATP, 3.4 nM PI3Kδ. Reactions were incubated for 120 min and terminated by the addition of 40 μL SPA beads suspended in quench buffer: 163 mM potassium phosphate pH 7.8, 20% glycerol, 25 mM EDTA. The final concentration of SPA beads is 1.0 mg/mL. […]
T1 sequence (O00329 whole entry): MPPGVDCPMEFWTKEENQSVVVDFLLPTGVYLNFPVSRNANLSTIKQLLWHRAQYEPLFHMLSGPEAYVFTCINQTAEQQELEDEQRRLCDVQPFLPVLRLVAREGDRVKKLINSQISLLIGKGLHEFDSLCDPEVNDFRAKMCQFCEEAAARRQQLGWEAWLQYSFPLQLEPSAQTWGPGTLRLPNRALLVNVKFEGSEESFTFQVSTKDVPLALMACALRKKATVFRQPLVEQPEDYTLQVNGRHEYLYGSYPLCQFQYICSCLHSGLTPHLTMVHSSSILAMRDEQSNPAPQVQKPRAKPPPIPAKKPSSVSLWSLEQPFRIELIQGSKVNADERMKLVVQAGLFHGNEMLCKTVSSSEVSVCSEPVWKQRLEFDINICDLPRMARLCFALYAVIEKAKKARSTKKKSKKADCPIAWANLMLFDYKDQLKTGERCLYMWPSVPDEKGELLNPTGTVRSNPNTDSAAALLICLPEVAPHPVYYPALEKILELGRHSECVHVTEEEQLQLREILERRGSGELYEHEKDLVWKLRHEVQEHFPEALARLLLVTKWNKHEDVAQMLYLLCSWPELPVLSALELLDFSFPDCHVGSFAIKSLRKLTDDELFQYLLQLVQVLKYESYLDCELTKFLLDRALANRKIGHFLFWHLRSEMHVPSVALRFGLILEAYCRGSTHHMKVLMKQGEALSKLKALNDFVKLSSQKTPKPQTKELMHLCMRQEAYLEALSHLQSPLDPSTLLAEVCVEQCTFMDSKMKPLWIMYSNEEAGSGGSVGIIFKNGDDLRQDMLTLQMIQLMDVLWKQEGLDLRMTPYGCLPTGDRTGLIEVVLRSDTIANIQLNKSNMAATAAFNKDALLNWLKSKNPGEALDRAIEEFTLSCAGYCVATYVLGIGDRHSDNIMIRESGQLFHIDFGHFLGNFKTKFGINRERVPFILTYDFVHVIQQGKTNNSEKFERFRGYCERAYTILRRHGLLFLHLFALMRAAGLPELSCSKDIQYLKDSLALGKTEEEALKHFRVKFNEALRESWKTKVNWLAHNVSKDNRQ

- IC50 [1]: < 500 nM
- IC50 [2]: < 2000 nM
Compound: Cc1ccc(S(=O)(=O)CC2CCC2)cc1-c1cnc2c(N)ncnn12
